Source: patent US10106532B2, “Inhibitors of beta-hydroxylase for treatment of cancer” (MIDWESTERN UNIVERSITY, priority 2012, dated 2018)
“Also recorded” adds a separate entry of the source.

Experiments:
[1] = test system: FOCUS; assay: cell viability; format: cell-based, human; settings: 5 μM
Experimental: (§1) A MTT assay was performed to evaluate the effect of MO-1-1100 on cell proliferation and viability. MTT is reduced to purple formazan in living cells. FOCUS cells were used as a high ASPH expressing human HCC cell line. […] The MTT assay measures cellular metabolic activity via NAD(P)H-dependent cellular oxidoreductase enzymes. […] In order to evaluate the effect of long-term exposure of MO-1-1100, the colony formation assay (an assay of malignant potential and phenotype) in which cells were treated with inhibitor for 3 weeks was performed.

[2] = test system: FOCUS cells; assay: MTT assay (cell proliferation, metabolic activity); format: cell-based, human; settings: 24 hours
Experimental: as §1

[3] = test system: human HCC cell line FOCUS; assay: subcutaneous xenograft of human hepatocellular carcinoma; format: in vivo, mouse; settings: 20 mg/kg per day
Experimental: The human HCC cell line FOCUS is known to be a highly aggressive tumor forming cell line in vivo. To investigate in vivo anti-tumor efficacy of the ASPH inhibitor, MO-1-1100 at 20 mg/kg per day was administered on 5 consecutive days for 2 weeks and every other day thereafter. […] Such findings indicate that any ASPH expressing human tumor are responsive to these specific β-hydroxylase inhibitors. These ASPH inhibitor compounds represent a class of anti-tumor agents that has substantial anti-tumor activity against a large number of solid human tumors known to have a dismal prognosis.

NC1=C(OS(=O)(=O)Cc2ccccc2)C(=O)C(c2ccc(Cl)cc2)O1 (racemic) [MO-1-1100]
cell viability, inhibition rate [1]: 37.9% | OD (optical density) value, MTT [2]: dose-dependently decreased | signs of wasting or other adverse effects relative to control mice [3]: None of the MO-1-1100 treated mice showed signs | tolerability [3]: tolerated well | HCC subcutaneous xenograft growth ([3]; 5 consecutive days for 2 weeks and every other day thereafter): significantly reduced; also recorded: strikingly reduces | tumor volumes reduced, average, compared to control mice ([3]; day 12 following treatment): 31.7%
